According to ChEMBL document CHEMBL1240304, “Host sphingolipid biosynthesis as a target for hepatitis C virus therapy” (Nat Chem Biol, 2005):
Activity calls are given as the source filed them. The calls are words filed in the database; no cut-off is given here.

Tests used:
[1] = Cytotoxicity against human Huh-7/3-1 cells assessed as cell viability at 0.1 to 11 uM after 72 hrs by WST-8 assay; type: cell-based
[2] = system: Hepatitis C virus; assay: Antiviral activity against Hepatitis C virus (isolate Con1) genotype 1b in human Huh-7/3-1 cells assessed as reduction in NS5B protein level in golgi-derived detergent-resistant membrane at 1 uM after 72 hrs by immunoblotting analysis; type: functional, organism-based; conditions: Hepacivirus hominis
[3] = system: Hepatitis C virus; assay: Binding affinity at HCV NS5B at 1 nmol by ELISA; conditions: Hepacivirus hominis; Con1
[4] = Cytotoxicity against human Huh-7/3-1 cells assessed as cell viability at 0.1 to 100 uM after 72 hrs by WST-8 assay; type: cell-based
[5] = system: Hepatitis C virus; assay: Relocation of NS5B in human Huh-7/3-1 Hepatitis C virus (isolate Con1) genotype 1b replicon cells using golgi-derived detergent-resistant membrane at 10 nM after 72 hrs by immunoblotting analysis; type: functional, organism-based; conditions: Hepacivirus hominis
[6] = system: Hepatitis C virus; assay: Antiviral activity against Hepatitis C virus (isolate Con1) genotype 1b in human Huh-7/3-1 cells assessed as decrease in replicon RNA at 0.01 to 1 uM after 72 hrs by Northern blot analysis; type: functional, organism-based; conditions: Hepacivirus hominis
[7] = system: Hepatitis C virus; assay: Antiviral activity against Hepatitis C virus (isolate Con1) genotype 1b in human Huh-7/3-1 cells assessed as reduction in NS3 protein level at 1 uM by Western blot analysis in presence of 5 uM C2-ceramide; type: functional, organism-based; conditions: Hepacivirus hominis
[8] = system: Hepatitis C virus; assay: Antiviral activity against Hepatitis C virus (isolate Con1) genotype 1b in human Huh-7/3-1 cells assessed as reduction in NS5B protein level at 100 nM by Western blot analysis; type: functional, organism-based; conditions: Hepacivirus hominis, TDE = time-dependent effect
[9] = system: Hepatitis C virus; assay: microbe, parasite or virus in culture; conditions: isolate Con1, Huh-7, 72 h
Description: Antiviral activity against Hepatitis C virus (isolate Con1) genotype 1b in human Huh-7/3-1 cells assessed as inhibition of HCV replication after 72 hrs by luciferase assay

[10] = system: Hepatitis C virus; assay: microbe, parasite or virus in culture; conditions: isolate Con1, Huh-7
Description: Antiviral activity against Hepatitis C virus (isolate Con1) genotype 1b in human Huh-7/3-1 cells assessed as inhibition of SPT activity in presence of 3 uM sphinganine

[11] = system: Hepatitis C virus; assay: Antiviral activity against Hepatitis C virus (isolate Con1) genotype 1b in human Huh-7/3-1 cells assessed as disappearance of NS3 protein from perinuclear region at 100 nM after 96 hrs by immunostaining; type: functional, organism-based; conditions: Hepacivirus hominis
[12] = system: Hepatitis C virus; assay: Antiviral activity against Hepatitis C virus (isolate Con1) genotype 1b in human Huh-7/3-1 cells assessed as reduction in NS3 protein level in golgi-derived detergent-resistant membrane at 1 uM after 72 hrs by immunoblotting analysis; type: functional, organism-based; conditions: Hepacivirus hominis
[13] = Cytotoxicity against human Huh-7/3-1 cells assessed as cell viability at 0.1 to 100 uM after 72 hrs by Trypan Blue exclusion test; type: cell-based
[14] = system: Hepatitis C virus; assay: microbe, parasite or virus in culture; conditions: isolate Con1, Huh-7; remark: listed apart in the source
Description: Antiviral activity against Hepatitis C virus (isolate Con1) genotype 1b in human Huh-7/3-1 cells assessed as inhibition of SPT activity in presence of 1 uM sphinganine

[15] = system: Hepatitis C virus; assay: Antiviral activity against Hepatitis C virus (isolate Con1) genotype 1b in human Huh-7/3-1 cells assessed as reduction in NS5A protein level at 100 nM by Western blot analysis; type: functional, organism-based; conditions: Hepacivirus hominis, TDE = time-dependent effect
[16] = system: Hepatitis C virus; assay: Antiviral activity against Hepatitis C virus (isolate Con1) genotype 1b in human Huh-7/3-1 cells assessed as reduction in NS5A protein level in golgi-derived detergent-resistant membrane at 1 uM after 72 hrs by immunoblotting analysis; type: functional, organism-based; conditions: Hepacivirus hominis
[17] = system: Hepatitis C virus; assay: Antiviral activity against Hepatitis C virus (isolate Con1) genotype 1b in human Huh-7/3-1 cells assessed as reduction in NS3 protein level at 100 nM by Western blot analysis; type: functional, organism-based; conditions: Hepacivirus hominis, TDE = time-dependent effect
[18] = target: T1, Serine palmitoyltransferase 1 (Homo sapiens, UniProt O15269); assay: Inhibition of human recombinant SPT1 activity in LCB1 transfected human HEK293 cells; type: cell-based
T1 sequence (O15269 whole entry): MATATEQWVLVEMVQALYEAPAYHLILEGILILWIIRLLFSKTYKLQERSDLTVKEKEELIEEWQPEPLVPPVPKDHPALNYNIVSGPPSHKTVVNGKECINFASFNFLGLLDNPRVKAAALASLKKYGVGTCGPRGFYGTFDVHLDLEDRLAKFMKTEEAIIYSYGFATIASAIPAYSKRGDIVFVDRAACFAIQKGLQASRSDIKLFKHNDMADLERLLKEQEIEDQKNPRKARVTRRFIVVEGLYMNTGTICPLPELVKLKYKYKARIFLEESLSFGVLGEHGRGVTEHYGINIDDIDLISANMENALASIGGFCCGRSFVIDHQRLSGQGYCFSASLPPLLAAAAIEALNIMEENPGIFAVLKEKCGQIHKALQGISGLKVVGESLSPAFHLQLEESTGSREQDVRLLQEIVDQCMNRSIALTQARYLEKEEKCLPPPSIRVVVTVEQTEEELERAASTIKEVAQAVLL

[19] = system: Hepatitis C virus; assay: Antiviral activity against Hepatitis C virus (isolate Con1) genotype 1b in human Huh-7/3-1 cells assessed as inhibition of HCV replication at 0.1 to 100 nM after 72 hrs by luciferase assay; type: functional, organism-based; conditions: Hepacivirus hominis
[20] = system: Hepatitis C virus; assay: Antiviral activity against Hepatitis C virus (isolate Con1) genotype 1b in human Huh-7/3-1 cells assessed as reduction in NS3 protein level at 1 uM by Western blot analysis in presence of 1 uM C2-ceramide; type: functional, organism-based; conditions: Hepacivirus hominis
[21] = organism: Homo sapiens; assay: Effect on Caveolin-2 localization in human Huh-7/3-1 replicon golgi-derived detergent-resistant membrane at 1 uM after 72 hrs by immunoblotting analysis; type: functional
[22] = Cytotoxicity against human Huh-7/3-1 cells assessed as cell cycle progression at 0.02 to 50 uM after 72 hrs by flow-cytometry; type: cell-based
[23] = system: Hepatitis C virus; assay: Antiviral activity against Hepatitis C virus (isolate Con1) genotype 1b in human Huh-7/3-1 cells assessed as inhibition of HCV replication; type: functional, organism-based, Hepacivirus hominis; conditions: isolate Con1, Huh-7
[24] = Cytotoxicity against human Huh-7/3-1 cells assessed as reduction in cell viability; type: cell-based

SMILES: CCCCCCCCCCCC(=O)N[C@@H](CO)C[C@@H](O)c1ccccc1
- Activity [1]: Non-toxic

SMILES: CCCCCCC(=O)CCCCCC/C=C/C[C@@H](O)[C@H](O)[C@@](N)(CO)C(=O)O
- Activity [2]: Active

SMILES: CCCCCCCCCCCCCC/C=C/[C@@H](O)[C@H](CO[C@@H]1O[C@H](CO)[C@H](O)[C@H](O)[C@H]1O)NC(=O)CCCCCCCCCCCCCCCCC
- Activity [3]: Active

SMILES: CCCCCCCC(=O)CCCCCC/C=C/[C@H](C(=O)N[C@@H](Cc1ccc(OCC=C(C)C)cc1)C(=O)O)[C@@](O)(CC(=O)O)C(=O)O
- Activity [4]: > 50 µM
- Activity [5]: inactive
- Activity [6]: Active
- Activity [7]: inactive
- Activity [8]: tde
- IC50 [9]: 2 nM
- Activity [2]: Active
- IC50 [10]: > 1000 nM
- Activity [11]: Active
- Activity [12]: inactive
- Activity [13]: Non-toxic
- IC50 [14]: 33 nM
- Activity [15]: tde
- Activity [16]: inactive
- Activity [17]: tde
- IC50 [18]: 10 nM
- Activity [19]: Dose-dependent effect
- Activity [20]: inactive
- Activity [21]: inactive
- Activity [22]: Non-toxic

SMILES: CCCCCCCCCCCCCCCC(=O)NC(CN1CCOCC1)C(O)c1ccccc1 (stereo not given)
- IC50 [23]: 1200 nM
- Activity [24]: 5.3 µM
